Data set [1] concerns the target T1, wt-CFTR (Homo sapiens, UniProt P13569). As for the experimental part: FIGS. 3A and B show recordings of the potentiation of wild-type (wt) and ΔF508-CFTR channel activity by genistein. […]
Cell culture: NIH/3T3-CFTR, NIH/3T3-ΔF508, and NIH/3T3 mock cells (generous gifts from Dr. Richard Mulligan of Children's Hospital and Medical Center, Harvard Medical School) were grown as described [Bradbury et al., 1992] at 37° C. and 5% CO2 in Dulbecco's modified Eagle's medium-H21 supplemented with 10% new-born calf serum, 4 mM glutamine, 25 mM glucose, 100 μg/ml penicillin, 100 μg/ml streptomycin, and 50 μg/ml gentamicin. Cells were maintained in T75 flasks, passaged at 90-95% confluency, and split one to four. For measurements of I^- efflux and in vivo phosphorylation, cells were seeded onto 35-mm dishes at […]. For patch-clamp experiments, cells were grown on coverglass chips in 35-mm culture dishes. Media were replaced 24 hours after plating and thereafter every 48 hours. In all cases, media were changed on the day before I^- efflux studies, NIH/3T3-ΔF508 cells were transferred to 27° C. three days before use, and 1 day prior to study, media were supplemented with 5 mM butyrate. For patch-clamp studies, where a constant level of functional ΔF508-CFTR was not essential, NIH/3T3-ΔF508 cells were cultured at 27° C. for 2-6 days before use. Calu-3 cells were grown and maintained as described by Hunter [1995].
(§1) Electrophysiology: CFTR channel currents were recorded at room temperature (~22° C.) with a patch-clamp amplifier (EPC-9, Heka Electronic), filtered at 100 Hz with a built-in three-pole Bessel filter, and stored on videotapes. Data were subsequently refiltered at 25 Hz with an eight-pole Bessel filter (Frequency Device, Havervill, Mass.) and captured onto a hard disk at a sampling rate of 50 Hz. […] Patch-clamp electrodes were made from Corning 7052 glass capillaries (Warner Instrument, Hammed, Conn.). The pipette resistance was usually 3-5 M.OMEGA., and the seal resistance was >20 G.OMEGA.. The pipette solution contained (in mM) 140 N-methyl-D-glucamine chloride (NMDG-C1), 2 MgCl2, 5Ca Cl2, and 10 HEPES (pH 7.4 with NMDG). The superfusion solution contained (in mM) 150 […], 2 MgCl2, 1 EGTA, 5 glucose, and 5 HEPES (pH 7.4 with NaOH). In excised inside-out patch experiments, the bath solution contained (in mM) 130 MNDG-Cl, 10 EGTA, 10 HEPES, 20 tetraethylammonium chloride, 8 Tris, and 2 MgCl2 (pH 7.4 with NMDG). Pipette potential was held at 50 mV relative to the bath. Downward deflections represent channel opening.
(§2) Statistics: Mean currents and variance were estimated with Igor (Wavemetrics, Lake Oswego, Oreg.). Parameters for mean current-variance relationships and dose-response curves were obtained from least-square fitting with Sigmaplot (Jandel, San Rafael, Calif.). Po was calculated from patches containing a single channel by dividing the open channel current amplitude with the mean-current amplitude.

The target of data set [2] is T1, wt-CFTR. The conditions noted are these: for TC1 (short mean closed time) / TC2 (long mean closed time) / TO1 (mean open time) / TO2 (long mean open time): Table 1. As for the experimental part: (A): continuous recordings, 4 minutes in length, of a cell-attached patch of wt-CFTR in the presence of 10 μM forskolin or 10 μM forskolin+50 μM genistein are shown. […] (B): dwell-time analysis of (A).
A continuous recording, 12 minutes in length, of cell-attached patch is shown. wt-CFTR was activated with 50 μM forskolin prior to start of trace and was present throughout recording Genistein (50 μM) was present as indicated.
as §1
as §2, with “[…]. Dwell-time analysis was described previously [Baukrowitz et al., 1994]. Calculated values are presented as means±SE. Comparisons among data were made using the Student's t-test with P<0.05 considered significant.” for “amplitude.”
To determine how genistein increases Po, the effects of genistein on single-channel kinetics were examined in cell-attached patches using dwell-time analysis. […] Both traces were recorded in the presence of 10 μM forskolin; 50 μM genistein was added prior to the start of the lower trace.

In data set [3] the target is T1, wt-CFTR. The class given is cell-based. Also on record: expressed in transfected cells. The procedure: (§3) FIGS. 4A and B are graphs showing the variance analysis of macroscopic currents for wt- and ΔF508-CFTR wherein (A) is a plot of variance as a function of mean-current amplitude for NIH/3T3-CFTR(.circle-solid.) and NIH/3T3-ΔF508 (.smallcircle.) cells stimulated with 10 μM forskolin plus 50 μM genistein. (B) is a plot of variance as a function of mean-current amplitude for NIH/3T3-CFTR (.circle-solid.) and NIH/3T3-ΔF508 (.smallcircle.) cells stimulated with 10 μM forskolin. Lines are least square regressions.
(§4) Electrophysiology: CFTR channel currents were recorded at room temperature (~22° C.) with a patch-clamp amplifier (EPC-9, Heka Electronic), filtered at 100 Hz with a built-in three-pole Bessel filter, and stored on videotapes. Data were subsequently refiltered at 25 Hz with an eight-pole Bessel filter (Frequency Device, Havervill, Mass.) and captured onto a hard disk at a sampling rate of 50 Hz. […] Patch-clamp electrodes were made from Corning 7052 glass capillaries (Warner Instrument, Hammed, Conn.). The pipette resistance was usually 3-5 M.OMEGA., and the seal resistance was >20 G.OMEGA.. […]
(§5) Statistics: Mean currents and variance were estimated with Igor (Wavemetrics, Lake Oswego, Oreg.). […] Po was calculated from patches containing a single channel by dividing the open channel current amplitude with the mean-current amplitude. […] Calculated values are presented as means±SE. […]

Another data set has as its target ΔF508-CFTR (Homo sapiens, UniProt P13569, DEL508-508). Kind of data set: Mean current-variance analysis of macroscopic currents, NIH/3T3-ΔF508 cells. It is filed as cell-based. Details: expressed in transfected cells; host or cells: NIH/3T3 cells, stably transfected (NIH/3T3-ΔF508, gift of Dr. Richard Mulligan). The procedure:
as §3, §4, §5

[4] abbreviates: 50 nM forskolin and 60 μM genistein (so in the source).
The mark [5] stands for this setting: 10 μM forskolin + 50 μM genistein.
Where [6] appears, read: 10 μM forskolin and 50 μM genistein.
Where [7] appears, read: 50 nM forskolin, single exponential fit.

Where “and” joins values, the source holds several entries; their conditions need not be identical. Equal values may be shown once. Read-outs that look alike come from different tables or passages of the source.

T1 sequence (P13569 whole entry): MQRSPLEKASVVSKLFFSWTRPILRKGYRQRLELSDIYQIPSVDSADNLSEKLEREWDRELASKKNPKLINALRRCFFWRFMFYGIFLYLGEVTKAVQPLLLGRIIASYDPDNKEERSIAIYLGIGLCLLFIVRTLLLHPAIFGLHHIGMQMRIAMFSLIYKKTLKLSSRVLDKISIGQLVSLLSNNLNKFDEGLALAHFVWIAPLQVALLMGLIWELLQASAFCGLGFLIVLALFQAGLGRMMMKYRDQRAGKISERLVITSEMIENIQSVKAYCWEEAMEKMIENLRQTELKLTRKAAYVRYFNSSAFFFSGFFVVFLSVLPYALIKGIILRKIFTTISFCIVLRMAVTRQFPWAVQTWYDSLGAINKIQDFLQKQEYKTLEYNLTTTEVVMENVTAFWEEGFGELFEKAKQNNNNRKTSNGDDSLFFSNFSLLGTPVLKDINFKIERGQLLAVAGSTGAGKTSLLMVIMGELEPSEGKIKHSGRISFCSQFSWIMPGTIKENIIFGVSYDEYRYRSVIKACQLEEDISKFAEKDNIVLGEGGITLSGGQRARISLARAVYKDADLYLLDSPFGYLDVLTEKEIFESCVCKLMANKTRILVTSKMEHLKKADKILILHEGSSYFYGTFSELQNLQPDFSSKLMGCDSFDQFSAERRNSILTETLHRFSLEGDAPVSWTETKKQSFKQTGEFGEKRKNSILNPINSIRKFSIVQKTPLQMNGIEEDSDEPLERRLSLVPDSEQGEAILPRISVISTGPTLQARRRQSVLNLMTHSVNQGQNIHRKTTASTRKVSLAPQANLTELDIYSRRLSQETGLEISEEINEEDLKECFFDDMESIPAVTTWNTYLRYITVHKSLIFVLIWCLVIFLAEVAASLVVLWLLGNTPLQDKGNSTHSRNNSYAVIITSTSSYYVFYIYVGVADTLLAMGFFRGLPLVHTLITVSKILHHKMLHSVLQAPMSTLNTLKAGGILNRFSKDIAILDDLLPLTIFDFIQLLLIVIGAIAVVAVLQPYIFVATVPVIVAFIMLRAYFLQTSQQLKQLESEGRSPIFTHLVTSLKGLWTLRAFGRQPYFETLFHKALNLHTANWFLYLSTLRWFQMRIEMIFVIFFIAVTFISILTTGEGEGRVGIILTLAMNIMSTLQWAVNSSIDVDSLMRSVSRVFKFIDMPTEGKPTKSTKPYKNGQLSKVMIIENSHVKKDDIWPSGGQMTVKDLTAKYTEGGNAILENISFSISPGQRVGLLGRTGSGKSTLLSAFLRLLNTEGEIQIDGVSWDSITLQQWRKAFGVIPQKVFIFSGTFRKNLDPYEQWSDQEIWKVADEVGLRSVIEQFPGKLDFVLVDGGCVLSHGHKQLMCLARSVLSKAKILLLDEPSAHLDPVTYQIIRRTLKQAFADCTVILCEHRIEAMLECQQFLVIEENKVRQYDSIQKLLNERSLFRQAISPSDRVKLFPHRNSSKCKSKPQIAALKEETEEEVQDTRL
ΔF508-CFTR, sequence (P13569 with tags, fused parts or gaps DEL508-508): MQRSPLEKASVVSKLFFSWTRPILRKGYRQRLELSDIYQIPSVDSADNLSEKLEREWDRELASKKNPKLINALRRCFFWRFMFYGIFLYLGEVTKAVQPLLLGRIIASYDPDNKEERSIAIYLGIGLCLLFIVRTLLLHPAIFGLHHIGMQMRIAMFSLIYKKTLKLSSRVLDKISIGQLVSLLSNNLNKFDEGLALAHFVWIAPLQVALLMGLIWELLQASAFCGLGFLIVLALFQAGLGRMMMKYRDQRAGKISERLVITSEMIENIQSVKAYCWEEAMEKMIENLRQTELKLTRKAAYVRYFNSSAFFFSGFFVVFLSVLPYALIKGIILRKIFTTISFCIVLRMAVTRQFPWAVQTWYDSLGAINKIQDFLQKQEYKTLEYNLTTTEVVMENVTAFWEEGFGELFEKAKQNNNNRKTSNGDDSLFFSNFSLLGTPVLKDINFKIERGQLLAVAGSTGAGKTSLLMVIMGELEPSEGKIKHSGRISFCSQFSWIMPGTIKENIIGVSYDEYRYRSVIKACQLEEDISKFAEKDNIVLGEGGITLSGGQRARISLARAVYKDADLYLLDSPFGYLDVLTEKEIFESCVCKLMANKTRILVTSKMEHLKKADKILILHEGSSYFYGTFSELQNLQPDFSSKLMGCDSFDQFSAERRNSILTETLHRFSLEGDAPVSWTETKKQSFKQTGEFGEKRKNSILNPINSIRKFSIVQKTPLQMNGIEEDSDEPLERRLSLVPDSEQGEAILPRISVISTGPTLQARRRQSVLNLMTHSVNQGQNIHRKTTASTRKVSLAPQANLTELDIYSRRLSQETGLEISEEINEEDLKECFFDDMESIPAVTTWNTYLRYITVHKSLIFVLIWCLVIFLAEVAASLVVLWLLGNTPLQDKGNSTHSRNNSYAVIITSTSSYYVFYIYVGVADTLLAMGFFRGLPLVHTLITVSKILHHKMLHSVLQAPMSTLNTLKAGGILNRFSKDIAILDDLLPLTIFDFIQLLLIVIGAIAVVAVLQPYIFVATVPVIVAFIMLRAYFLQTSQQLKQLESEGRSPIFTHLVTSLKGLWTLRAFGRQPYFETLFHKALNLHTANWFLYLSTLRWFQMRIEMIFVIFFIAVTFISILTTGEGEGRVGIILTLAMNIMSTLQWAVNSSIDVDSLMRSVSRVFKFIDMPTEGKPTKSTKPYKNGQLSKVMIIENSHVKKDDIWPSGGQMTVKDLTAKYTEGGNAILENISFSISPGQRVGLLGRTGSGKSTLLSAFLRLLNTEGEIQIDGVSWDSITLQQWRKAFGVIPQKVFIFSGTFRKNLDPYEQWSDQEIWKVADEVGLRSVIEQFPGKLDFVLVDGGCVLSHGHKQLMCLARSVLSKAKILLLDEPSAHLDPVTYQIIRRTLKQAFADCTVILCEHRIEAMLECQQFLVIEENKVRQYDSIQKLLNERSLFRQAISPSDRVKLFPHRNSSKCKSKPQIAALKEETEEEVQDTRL

In the case of `O=c1c(-c2ccc(O)cc2)coc2cc(O)cc(O)c12` [Genistein, 4',5,7-trihydroxyisoflavone], at wt-CFTR [1] (5 μM genistein with 50 nM forskolin), the macroscopic current is listed as ~ 7.5 pA. Further, on wt-CFTR [1] (50 μM genistein on 10 μM forskolin, NIH/3T3-CFTR, 50 µM), the “average increase in mean-current amplitude by genistein” value was 3.9±0.4 fold and 3.3±0.4 fold. Also, on wt-CFTR [1] (50 μM genistein, NIH/3T3-CFTR cells incubated at 27° C. for 2-6 days, n=13), the “increase of forskolin-dependent wt-CFTR activity by genistein” value was 3.1±0.3 fold. In addition, on wt-CFTR [1] (multichannel patches, 50 nM forskolin, n=6), the “increase of wt-CFTR current by genistein” value stood at 21±6 fold. For the same molecule, the “increase in Po by genistein” value at wt-CFTR [2] (50 nM forskolin) was more than 10 fold. Moreover, on wt-CFTR [2] (setting [4]), the mean closed time is ~ 2.5 seconds and the mean open time is on record as ~ 3.0 seconds. The “open probability Po” value at wt-CFTR [2] (50 nM forskolin plus 50 μM genistein) was 0.79. Besides, the “open probability Po” value at wt-CFTR [2] (10 μM forskolin plus 50 μM genistein, four channels) was determined as 0.71±0.06. On wt-CFTR [2] (setting [5]), the “TC1 (short mean closed time)” value was found to be 0.49 ± 0.08, the “TC2 (long mean closed time)” value worked out at 3.76 ± 1.09 and the “TO1 (mean open time)” value was 0.28 ± 0.11. Also, the “TO2 (long mean open time)” value at wt-CFTR [2] (10 μM forskolin + 50 μM genistein, significant, <0.05) is recorded as 2.10 ± 0.30. Moreover, the “effect on long closed time” value on wt-CFTR [2] (wt-CFTR, FIG. 7) was “dramatically decreases the long closed time”. Besides, on wt-CFTR [3] (setting [6]), the “slope of variance vs mean current (proportional to 1-Po)” value (“slope of variance vs mean current” below) turned out to be 0.17±0.02 pA. In addition, the “slope of variance vs mean current” value at ΔF508-CFTR (setting [6]) amounted to 0.16±0.03 pA.
For `C=C[C@@]1(C)CC(=O)[C@]2(O)[C@@]3(C)[C@@H](O)CCC(C)(C)[C@@H]3[C@H](O)[C@H](OC(C)=O)[C@@]2(C)O1` [forskolin], the “single-channel current steps observed” value on wt-CFTR [1] (50 nM forskolin) was not above 4. On wt-CFTR [2] (50 nM forskolin), the TC2 is on record as ~ 22 seconds and the “open probability Po” value is 0.07. Also, on wt-CFTR [2] (setting [7]), the mean closed time is given as ~ 22 seconds and the mean open time is ~ 0.9 seconds. On wt-CFTR [2] (10 μM forskolin), the TC2 was ~ 3 seconds, the “TC1 (short mean closed time)” value was 0.39 ± 0.11, the “TC2 (long mean closed time)” value is recorded as 2.98 ± 0.81 and the “TO1 (mean open time)” value amounted to 0.24 ± 0.01. The “TO2 (long mean open time)” value on wt-CFTR [2] (10 μM forskolin) came to 0.88 ± 0.09. Besides, the “open probability Po” value on wt-CFTR [2] (10 μM forskolin, four channels) was found to be 0.27±0.03. Besides, the “increase of long closed time on reducing forskolin” value at wt-CFTR [2] (forskolin reduced from 10 μM to 50 nM) is ~ 10 fold. Besides, the “slope of variance vs mean current” value at wt-CFTR [3] (10 μM forskolin) was 0.27±0.02 pA. In addition, the “slope of variance vs mean current” value at ΔF508-CFTR (10 μM forskolin) is 0.72±0.06 pA.

The values are drawn from patent US5948814A, “Genistein for the treatment of cystic fibrosis” (priority 1998, dated 1999).
